The molecules below were run against xanthine oxidase (UniProt P80457) (assay: Inhibition of production of uric acid by xanthine/xanthine oxidase). Settings: xanthine oxidase 0.024 units/mL, 100 μM xanthine, pH 7.5, 25° C.; mean ± SEM of triplicate experiments.
Assay type: biochemical
Procedure: Uric acid is produced from xanthine oxidation by xanthine oxidase.
Specifically, the sample and xanthine oxidase (0.024 units/mL) were mixed in 100 mM phosphate buffer (pH 7.5) and preincubated at 25° C. for 10 min. The reaction was initiated by the addition of 100 μM xanthine and incubation was further carried out at 25° C. for 30 min. […] The inhibition of uric acid production A (%) was calculated according to Equation 1. […] [Equation 1]

Row | IC50 [µM] | SMILES
1 | 73.2 ± 5.1 | CC(=O)/C=C/C1=C(C)C(O)C(O[C@@H]2OC(COC(=O)/C=C/c3ccc(O)c(O)c3)[C@@H](O)C(O)C2O)CC1(C)C (stereo partly shown) [Compound 3, 6′-O-Caffeoylsonchuinoside C]
2 | 71.1 ± 3.9 | COc1cc(CCCO)cc(OC)c1O[C@@H]1OC(COC(=O)/C=C/c2ccc(O)c(O)c2)[C@@H](O)C(O)C1O (stereo partly shown) [Compound 4, 6′-O-Caffeoyldihydrosyringin]
3 | 80 ± 4.9 | C/C(=C\CO)CO[C@@H]1OC(COC(=O)/C=C/c2ccc(O)c(O)c2)[C@@H](O)C(O)C1O (stereo partly shown) [Compound 5]
4 | 93 ± 1.7 | C[C@H](/C=C/[C@@]1(O)[C@H](C)CC(=O)CC1(C)C)OC1OC(COC(=O)/C=C/c2ccc(O)c(O)c2)C(O)C(O)C1O (stereo partly shown) [Compound 1, 6′-O-caffeoylampelopsisionoside]

From patent US9527879B2, “Aster glehni extracts, fractions or compounds isolated therefrom for the treatment or prevention of hyperuricemia or gout” (KOREA INSTITUTE OF SCIENCE AND TECHNOLOGY, priority 2014, dated 2016)
